Literature values as cited in US6410588B1, “Use of cannabinoids as anti-inflammatory agents” (priority 1998, dated 2002).

What was measured:
[1] = tested on: antibody formation against sheep red blood cells; settings: studies in mice; cited from earlier work
[2] = tested on: IFNγ; settings: cited from earlier work
[3] = tested on: nitric oxide (NO); settings: macrophages activated by LPS and IFNγ; cited from earlier work

## CCCCCc1cc(O)c2c(c1)OC(C)(C)C1CCC(C)=CC21 (stereo not shown) [THC, Delta-9-tetrahydrocannabinoid, reference compound]
[1]
  antibody formation against sheep red blood cells: suppresses antibody formation
[2]; high concentrations (5-24 μg/ml)
  IFNγ synthesis: completely blocked IFNγ synthesis
[2]; low concentrations
  IFNγ production: increase IFNγ production
[3]
  nitric oxide (NO) production: inhibited
